Assay results as given in patent US7863239B2, “Binding compounds, immunogenic compounds and peptidomimetics” (Pepscan Systems B.V., priority 2005, dated 2011).
“Also recorded” adds a separate entry of the source. *1 amine or outer side, *2 acyl side, *3 side chain or, on linkers, in order; H or OH if unused. Bridges are numbered along the chain shown (N, C = ends). Where no end group is shown, it is not given here. T4 = 1,2,4,5-tetrabromodurene scaffold; mXylylene = c1cc(C[*:1])cc(C[*:2])c1

Experiments:
[1] = tested on: anti-CCR5 antibody 2D7; experiment: Screening of peptide microarrays with anti-CCR5 antibody 2D7; assay type: binding; details: absorbance at 405 nm measured using a CCD-camera; for 2D7 (0.1 μg/ml): mAb 2D7 at 0.1 μg/ml on peptide microarray; for 2D7 (1 μg/ml): mAb 2D7 at 1 μg/ml on peptide microarray; for 2D7 (10 μg/ml): mAb 2D7 at 10 μg/ml on peptide microarray
Experimental: Grafting of the polypropylene support with polyacrylic acid was performed by irradiating the support in a 6% acrylic acid solution containing CUS04 using gamma radiation at a dose of 12 kGy. The grafted solid support containing carboxylic acid groups was subsequently reacted with t-butyloxycarbonyl-hexamethylenediamine (Boc-HMDA) using dicyclohexylcarbodiimide (DCC) with N-hydroxybenzotriazole (HOBt) and subsequent cleavage of the Boc-groups using trifluoroacetic acid (TFA). The peptides were synthesized using standard Fmoc-chemistry and, after acylation, deprotected by reaction with TFA (15 ml/g resin) containing 13.3% (w) phenol, 5% (v) thioanisole, 2.5% (v) 1,2-ethanedithiol, and 5% (v) milliQ-H2O for 2-4 hrs at RT. After washing 3× with H2O, the peptide microarrays were treated with excess of a 1.0 mM solution of either mP2 or T3 in 20 mM amm. bicarbonate (pH 7.8)/acetonitril (1:1 v/v) for 30-60 min. at room temperature, followed by 3× washing with 50% ACN/H2O. Then, the microarrays were washed with excess of millipore H2O and sonicated in disrupt-buffer (1% SDS/0.1% β-mercaptoethanol (BME) in phosphate buffered saline (PBS), pH 7.2) at 70° C. for 30 min. followed by sonication in millipore H2O for another 45 min. Synthese Van Scaffolds: The scaffolds are commercially available by Aldrich. Screening of Micro-Arrays with Antibodies Microarrays were pretreated with PBS for 30 min. followed by precoating with incubation buffer (PBS containing 5% ovalbumin, 5% horse serum and 1% Tween-80) for 1 hour. Then, the microarrays were incubated with mAb (typically 1/1000, diluted in incubation buffer) overnight at 4° C. After washing (3×10 min.) with PBS/Tween-80 (0.05%), the peptides were incubated with peroxidase labeled rabbit anti-mouse antibody for 1 hr at 25° C. (rampo, 1/1000; Dako, Glostrup, Denmark) and subsequently, after washing again (3×10 min.) with PBS/Tween-80 (0.05%), incubated with the peroxidase substrate 2,2′-azino-di-3-ethylbenzthiazoline sulfonate (ABTS; 50 mg in 100 ml 0.1M citric acid-sodium phosphate (McIlvaine) buffer (pH 4.0) containing 20 ul 30% H2O2). After 1 h the absorbance (at 405 nm) was measured using a CCD-camera (XC-77RR, Sony, Japan). Bound mAb was removed by sonication in disrupt-buffer as described above. The micro-arrays were re-used for screening approximately 10-15 times. CCR5 CCR5 is a […] co-receptor that is used by HIV for cellular entry. Antibodies specifically directed against CCR5 would therefore be suitable for counteracting cellular entry by HIV. However, immunization with whole CCR5 is problematic since CCR5 is a transmembrane protein. In order to be capable of eliciting CCR5-specific antibodies, immunogenic compounds based on CCR5 are therefore desired. In order to design suitable test compounds, 4 CCR5 sequences were taken into account: one N-terminus domain (Nt) and three extracellular loop domains extended with about 1-6 adjacent amino acid residues of the transmembrane domains (N-terminally as well as C-terminally). These extracellular loop domains are called e1, e2 and e3. The primary sequences of the considered domains are as follows (starting N-terminally):
In the first series of peptides (first row of the above Table), the C-terminal amino acids K, I, N, V, K, Q, I, and A of the Nt sequence were selected. Subsequently, N-terminal flanking sequences with a length of 21 amino acid residues were selected. […] Subsequently, peptides were produced containing one of these flanking sequences. Likewise, in the second series of peptides (second row of the above Table), the C-terminal amino acids P, C, Q, K, I, N, V and K of the Nt sequence were selected. Subsequently, N-terminal flanking sequences with a length of 18 amino acid residues were selected. […] Subsequently, peptides were produced containing one of these flanking sequences. […]

[2] = tested on: FSH; experiment: Vaccination of rats with FSH-derived peptides, antisera analyzed in FSH-binding ELISA; details: rat, in vivo
Experimental: Peptides were synthesized by solid-phase peptide synthesis using a 4-(2′,4′-dimethoxyphenyl-Fmoc-aminomethyl)-phenoxy (RinkAmide) resin (BACHEM, Germany) on a Syro-synthesizer (MultiSynTech, Germany). All amino acids were purchased and used as N-alpha-(Fmoc) protected with side-chain functionalities protected as N-t-Boc (KW), O-t-Bu (DESTY), N-Trt (HNQ), S-Trt (C), or N-Pbf (R) groups. A coupling protocol using a 6.5-fold excess of HBTU/HOBt/amino acid/DIPEA (1:1:1:2) in NMP with a 30 min. activation time using double couplings was employed. […] Subsequently, female Wistar rats were immunized on day 0 with 400 uL of a ˜2.5 mg/mL of the peptide or peptide-T-construct in PBS/CFA 1:1 (v/v) (PBS=Phosphate-Buffered Saline, CFA=Complete Freund's Adjuvance), followed by a booster (same quantity and concentration) at 4 weeks. Subsequently, the anti-peptide titers were determined after 6 weeks to check for immune response and finally the rats were bleeded after 8 weeks and the antisera collected. Antisera were analyzed in an FSH-binding ELISA (Greiner, PS; GDA-coating with 1 μg/mL of FSH (Biotrend)) using 2,2′-azine-di(ethylbenzthiazoline sulfonate) (ABTS) in combination with a peroxidase-labeled Goat-anti-rat serum as second antibody. […]

Row | Substance | 2D7 (0.1 μg/ml) [1] | 2D7 (1 μg/ml) [1] | 2D7 (10 μg/ml) [1] | immune response against native FSH in rats (in words) [2] | immune response against native FSH in rats (in words) ([2]; listed as TFKELVYETCRVPGAAHHADSLCTYPVATQAH cyclized onto m-T2)
1 | CQWDFGNTCQKEGLHYTC (SEQ ID NO: 107) (not fully specified; bound to P2 or T3 scaffold) [compound 1159] | 213 | 1153 | 2636 | – | –
2 | CAQWDFGNCQKEGLHYTC (SEQ ID NO: 109) (not fully specified; bound to P2 or T3 scaffold) [compound 1158] | 132 | 416 | 2377 | – | –
3 | CFGNTMGGGRSQKEGLHYTC (SEQ ID NO: 108) (not fully specified; bound to P2 or T3 scaffold) [compound 719] | 113 | 678 | 2819 | – | –
4 | CRSQKEGLHYTC (SEQ ID NO: 105) [compound 450] | 107 | 2364 | 2852 | – | –
5 | CNTMGGGRSQKEGLHYTC (SEQ ID NO: 106) (not fully specified; bound to P2 or T3 scaffold) [compound 702] | 68 | 1580 | 2787 | – | –
6 | *KIQKTATFKELVYETCRVPGAAHHADSLCTYPVATQAHAGK# (SEQ ID NO: 120) T4 (KIQKTATFKELVYETCRVPGAAHHADSLCTYPVATQAHAGK-NH2; linker 16-29 via T4 (inferred)) [No. 9 (Table 4B), FSH-derived CLIPS peptide] | – | – | – | Good results | –
7 | CSQKEGLHYTC (SEQ ID NO: 103) (not fully specified; bound to P2 or T3 scaffold) [compound 449] | 99 | 2606 | 2889 | – | –
8 | *TFKELVYETCRVPGAAHHADSLCTYPVATQAH# (SEQ ID NO: 119) + m-T2 (TFKELVYETCRVPGAAHHADSLCTYPVATQAH-NH2; linker 10-23 via mXylylene (inferred)) [No. 4 (Table 4B), FSH-derived CLIPS peptide] | – | – | – | – | production of antibodies that are reactive with native FSH; also recorded: very high antibody titre
9 | CQKEGLHYTC (SEQ ID NO: 101) (not fully specified; bound to P2 or T3 scaffold) [compound 447] | 261 | 2706 | 2943 | – | –
10 | CWDFGNTMCQKEGLHYTC (SEQ ID NO: 104) (not fully specified; bound to P2 or T3 scaffold) [compound 1160] | 315 | 2469 | 2765 | – | –
11 | CQKEGLHYC (SEQ ID NO: 102) (not fully specified; bound to P2 or T3 scaffold) [compound 443] | 148 | 2636 | 3090 | – | –
